# Measured values taken from patent US20040116297A1, “Use of polyprenol and its derivatives for facilitating growth of plants” (priority 2001, published 2004).
# Columns and labels:
# [1] = test system: corn; test: Effect on growth of corn; type: in vivo; settings: for Early plant height / Fresh weight / Tiller number: corn seeds immersed 2 hrs at 100 ppm, after 60 days; for Rate of increase of early plant height / Rate of increase of fresh weight / Rate of increase of tiller number: corn, 100 ppm, vs control
# Protocol: [Worded in the source for another target; used here, by the source, with some conditions changed.] (§1) Then, the treated seeds were dried for 24 hrs at 25° C. Round pots of 25 cm in diameter (7 L capacity) were filled with soil for horticulture, and 50 pots (2 seeds per pot) were sown. After 60 days at about 25° C., the crop growth was evaluated by rate of emergence and early plant height. […] As a control, bean seeds which were not immersed in the polyprenol preparation were used.
# [2] = test system: bean; test: Effect on growth of bean; type: in vivo
# Protocol: (§2) 100 g of bean seeds were immersed in a 100 ml solution containing the polyprenol preparation formulated in Example 3 at a concentration of 100 ppm, for 1 hr. Then, the treated seeds were dried for 24 hrs at 25° C. Round pots of 25 cm in diameter (7 L capacity) were filled with soil for horticulture, and 50 pots (2 seeds per pot) were sown. After 60 days at about 25° C., the crop growth was evaluated by rate of emergence and early plant height. The test was repeated 3 times, and the average values are represented in Table 7. As a control, bean seeds which were not immersed in the polyprenol preparation were used.
# In example 4, the compound having chloride group instead of hydroxyl group can be synthesized. The compound was evaluated on effect on crop growth. 100 g of bean seeds were immersed in a 100 ml solution containing the polyprenol preparation formulated in Example 4 at a concentration of 100 ppm, for 1 hr. Then, the treated seeds were dried for 24 hrs. Round pots of 25 cm in diameter (7 L capacity) were filled with soil for horticulture, and 50 pots (2 seeds per pot) were sown. After 60 days, the crop growth was evaluated. The test was repeated 3 times, and the average values are represented in Table 14. As a control, bean seeds which were not immersed in the polyprenol preparation were used.
# as §2, with “Example 5” for “Example 3”, “24 hrs.” for “24 hrs at 25° C.”, “60 days,” for “60 days at about 25° C.,”, “was evaluated.” for “was evaluated by rate of emergence and early plant height.”, “Table 16.” for “Table 7.”
# [3] = test system: red pepper; test: Effect on growth of red pepper; type: in vivo; settings: 100 ppm
# Protocol: [Worded in the source for another target; used here, by the source, with some conditions changed.] as §1
# [4] = test system: radish; settings: cited from earlier work
# [5] = test system: cabbage; settings: cited from earlier work
# [6] = test system: rice; settings: depending on the plant breeding; cited from earlier work
# [7] = bean seeds immersed 1 hr at 100 ppm, after 60 days
# [8] = foliage treatment after growing for 20 days
Compound,Early plant height [1] [cm],Fresh weight [1] [g],Tiller number [1],Rate of increase of early plant height [1] [%],Rate of increase of fresh weight [1] [%],Rate of increase of tiller number [1] [%],other results
Polyprenyl Methyl Sulfide [Example 6-5],108.9,65.7,8.5,0.2,26.3,3.6,–
Polyprenyl Methyl Ether [Example 6-4],110.1,60.3,8.7,1.3,15.9,6.0,–
"Polyprenol of Formula I, in which m is 18 [Example 4]",–,–,–,–,–,–,"Early plant height [2, 7]: 68.2 cm; No. of pods [2, 7]: 35.4; Rate of emergence [2, 7]: 55.7%; Increase of all factors tested (early plant height, rate of emergence, pod number) ([2]; bean, 100 ppm, summary statement): more than 7%; Rate of increase of No. of pods ([2]; bean, 100 ppm, vs control): 17.2%; Rate of increase of early plant height ([2]; bean, 100 ppm, vs control): 7.74%; Rate of increase of rate of emergence ([2]; bean, 100 ppm, vs control): 7.32%; Early plant length [3, 8]: 70.5 cm; Flower number [3, 8]: 8.4; Trunk diameter [3, 8]: 8.5 mm; Rate of increase of early plant length ([3]; vs control): 11.7%; Rate of increase of flower number ([3]; vs control): 10.5%; Rate of increase of trunk diameter ([3]; vs control): 1.2%"
polyprepyl dimethyl sulfonium bromide [Example 6-7],109.5,70.1,9.2,0.8,34.8,12.1,–
polyprenyl ethyl carbonate [Example 6-6],109.6,61.3,8.4,0.9,17.8,2.4,–
CCCCCCCCCCCCCCCCCCCCCCCCCCCCCCO [tricontanol],–,–,–,–,–,–,Increase of yield [4]: 108.4%; Increase of yield [5]: 83%; Increase of yield [6]: 14.8-41%
Polyprenyl Stearate [Example 6-3],109.1,68.0,8.6,0.4,30.7,4.8,–
